From patent publication US10611740B2, “Aryl dihydro-2H-benzo[b][1,4]oxazine sulfonamide and related compounds for use as agonists of RORγ and the treatment of disease” (Lycera Corporation, priority 2015, dated 2020)

Biological target: T1, RORγ-LBD (Homo sapiens, UniProt P51449)
T1 construct: made in house; host or cells: SF9 cells (baculovirus)
T1 sequence (P51449 269-508 limits assumed): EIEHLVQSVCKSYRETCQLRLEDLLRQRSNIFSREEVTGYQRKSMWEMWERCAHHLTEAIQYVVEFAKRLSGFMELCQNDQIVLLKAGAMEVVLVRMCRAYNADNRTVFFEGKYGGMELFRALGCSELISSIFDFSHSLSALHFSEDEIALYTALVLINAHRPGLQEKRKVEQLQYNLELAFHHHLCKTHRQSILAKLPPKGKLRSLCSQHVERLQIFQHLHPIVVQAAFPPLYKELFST
Experiment: RORγ-Ligand Binding Domain (LBD) TR-FRET Assay;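 for TR-FRET Assay Max Response: 665/615 nm ratio relative to signal without ursolic acid or compound set at 100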
Assay type: biochemical
Experimental: Assay procedures and results are described below.
HIS-tagged RORγ-LBD protein was expressed in SF9 cells using a baculovirus expression system. The lysate was diluted in assay buffer (50 mM Tris pH 7.0, 50 mM KCl, 1 mM EDTA, 0.1 mM DTT, 0.01% BSA) to obtain RORγ-LBD final concentration of ˜3 nM in a 384-well assay plate (need to titrate for each batch of protein).
A stock of biotinylated-LXXLL peptide from coactivator SRC1 (Biotin-[…]) was prepared in assay buffer and added to each well (200 nM final concentration). […] RORγ antagonist ursolic acid was also included at a final concentration of 2 μM. Compounds were diluted in DMSO and further diluted in assay buffer with a final DMSO concentration at 1%.

SMILES	EC50	TR-FRET Assay Max Response
CC(=O)NC1(C[C@H]2CN(S(=O)(=O)c3cccc(C(F)(F)F)c3)c3cc(-c4cc(F)cc(OC(F)F)c4)ccc3O2)CCOCC1 [Compound 78I, (S)-N-(4-((6-(3-(difluoro-methoxy)-5-fluorophenyl)-4-((3-(trifluoromethyl)phenyl)sulfonyl)-3,4-dihydro-2H-benzo[b][1,4]-oxazin-2-yl)methyl)tetrahydro-2H-pyran-4-yl)acetamide]	< 500 nM	*** (The symbol “***” indicates a value in the range of greater than 150 to 200)
CN(C)c1nccc(-c2ccc3c(c2)N(S(=O)(=O)c2cccc(C(F)(F)F)c2)C[C@H](CCC(=O)O)O3)n1 [Compound 4AV, (S)-3-(6-(2-(dimethylamino)-pyrimidin-4-yl)-4-((3-(trifluoromethyl)phenyl)-sulfonyl)-3,4-dihydro-2H-benzo[b][1,4]oxazin-2-yl)propanoic acid]	500 to 5000 nM	*** (The symbol “***” indicates a value in the range of greater than 150 to 200)
O=C(O)[C@H]1C[C@@H]([C@H]2CN(S(=O)(=O)c3cccc(C(F)(F)F)c3)c3cc(-c4cc(F)ccc4F)ccc3O2)C1 [Compound 60H, (1R,3s)-3-((S)-6-(2,5-difluoro-phenyl)-4-((3-(trifluoromethyl)-phenyl)sulfonyl)-3,4-dihydro-2H-benzo[b][1,4]oxazin-2-yl)cyclobutane-1-carboxylic acid]	< 500 nM	** (The symbol “**” indicates a value in the range of greater than 90 to 150)
O=C(O)C1(C[C@H]2CN(S(=O)(=O)c3cccc(C(F)(F)F)c3)c3cc(-c4cc(F)ccc4F)ccc3O2)CCOCC1 [Compound 57, (S)-4-((6-(2,5-difluorophenyl)-4-((3-(trifluoromethyl)phenyl)sulfonyl)-3,4-dihydro-2H-benzo[b][1,4]oxazin-2-yl)methyl)tetrahydro-2H-pyran-4-carboxylic acid]	< 500 nM	*** (The symbol “***” indicates a value in the range of greater than 150 to 200)
C[C@@H](C[C@H]1CN(S(=O)(=O)c2cccc(C(F)(F)F)c2)c2cc(-c3cc(F)cc(F)c3Cl)cc(F)c2O1)C(=O)O [Compound 46I, (S)-3-((S)-6-(2-chloro-3,5-difluorophenyl)-8-fluoro-4-((3-(trifluoromethyl)phenyl)sulfonyl)-3,4-dihydro-2H-benzo[b][1,4]-oxazin-2-yl)-2-methylpropanoic acid]	< 500 nM	*** (The symbol “***” indicates a value in the range of greater than 150 to 200)
O=C(NC[C@H]1CN(S(=O)(=O)c2cccc(C(F)(F)F)c2)c2cc(-c3cc(F)cc(OC(F)F)c3)ccc2O1)c1ccn[nH]1 [Compound 30DB, (S)-N-((6-(3-(difluoromethoxy)-5-fluorophenyl)-4-((3-(trifluoromethyl)phenyl)sulfonyl)-3,4-dihydro-2H-benzo[b][1,4]oxazin-2-yl)methyl)-1H-pyrazole-5-carboxamide]	< 500 nM	*** (The symbol “***” indicates a value in the range of greater than 150 to 200)
Cn1cc(C(=O)NC[C@H]2CN(S(=O)(=O)c3cccc(C(F)(F)F)c3)c3cc(-c4cc(F)cc(OC(F)F)c4)ccc3O2)c(C(F)(F)F)n1 [Compound 30CZ, (S)-N-((6-(3-(difluoromethoxy)-5-fluorophenyl)-4-((3-(trifluoro-methyl)phenyl)sulfonyl)-3,4-dihydro-2H-benzo[b][1,4]-oxazin-2-yl)methyl)-1-methyl-3-(trifluoromethyl)-1H-pyrazole-4-carboxamide]	< 500 nM	*** (The symbol “***” indicates a value in the range of greater than 150 to 200)
O=C(O)CC[C@H]1CN(S(=O)(=O)c2cccc(C(F)(F)F)c2)c2cc(-c3cc(F)cc(OC(F)F)c3)c(Cl)cc2O1 [Compound 22N, (S)-3-(7-chloro-6-(3-(difluoro-methoxy)-5-fluorophenyl)-4-((3-(trifluoromethyl)phenyl)sulfonyl)-3,4-dihydro-2H-benzo[b][1,4]-oxazin-2-yl)propanoic acid]	< 500 nM	
O=C1CC[C@](C[C@H]2CN(S(=O)(=O)c3cccc(C(F)(F)F)c3)c3cc(-c4cc(F)cc(OC(F)F)c4)ccc3O2)(C(=O)O)N1 [Compound 77D, (S)-2-(((S)-6-(3-(difluoro-methoxy)-5-fluorophenyl)-4-((3-(trifluoromethyl)phenyl)sulfonyl)-3,4-dihydro-2H-benzo[b][1,4]-oxazin-2-yl)methyl)-5-oxopyrrolidine-2-carboxylic acid]	< 500 nM	** (The symbol “**” indicates a value in the range of greater than 90 to 150)

Second part, led by results:

EC50	SMILES	TR-FRET Assay Max Response
< 500 nM	C[C@H](C[C@H]1CN(S(=O)(=O)c2cccc(C(F)(F)F)c2)c2cc(-c3cccc(C(F)(F)F)c3)ccc2O1)C(=O)O [Compound 46K, (R)-2-methyl-3-((S)-6-(3-(trifluoromethyl)phenyl)-4-((3-(trifluoromethyl)phenyl)sulfonyl)-3,4-dihydro-2H-benzo[b][1,4]-oxazin-2-yl)propanoic acid]	*** (The symbol “***” indicates a value in the range of greater than 150 to 200)
< 500 nM	C[C@@H](CC(=O)O)[C@H]1CN(S(=O)(=O)c2cccc(C(F)(F)F)c2)c2cc(-c3cc(F)cc(OC(F)F)c3)ccc2O1 [Compound 80A, (S)-3-((S)-6-(3-(difluoro-methoxy)-5-fluorophenyl)-4-((3-(trifluoromethyl)phenyl)sulfonyl)-3,4-dihydro-2H-benzo[b][1,4]-oxazin-2-yl)butanoic acid]	*** (The symbol “***” indicates a value in the range of greater than 150 to 200)
500 to 5000 nM	Cc1coc(-c2ccc3c(c2)N(S(=O)(=O)c2cccc(C(F)(F)F)c2)C[C@H](CCC(=O)O)O3)n1 [Compound 25, (S)-3-(6-(4-methyloxazol-2-yl)-4-((3-(trifluoromethyl)phenyl)sulfonyl)-3,4-dihydro-2H-benzo[b][1,4]oxazin-2-yl)propanoic acid]	** (The symbol “**” indicates a value in the range of greater than 90 to 150)
500 to 5000 nM	O=C(O)C1(C[C@@H]2CN(S(=O)(=O)c3cccc(C(F)(F)F)c3)c3cc(-c4cc(F)ccc4F)ccc3O2)CCC1 [Compound 32AQ, (R)-1-((6-(2,5-difluorophenyl)-4-((3-(trifluoromethyl)phenyl)-sulfonyl)-3,4-dihydro-2H-benzo[b][1,4]oxazin-2-yl)methyl)cyclobutane-1-carboxylic acid]	** (The symbol “**” indicates a value in the range of greater than 90 to 150)
< 500 nM	C[C@H](C[C@H]1CN(S(=O)(=O)c2cccc(C(F)(F)F)c2)c2cc(-c3cc(F)cc(F)c3Cl)cc(F)c2O1)C(=O)O [Compound 46H, (R)-3-((S)-6-(2-chloro-3,5-difluorophenyl)-8-fluoro-4-((3-(trifluoromethyl)phenyl)sulfonyl)-3,4-dihydro-2H-benzo[b][1,4]-oxazin-2-yl)-2-methylpropanoic acid]	*** (The symbol “***” indicates a value in the range of greater than 150 to 200)
< 500 nM	C[C@H](C[C@H]1CN(S(=O)(=O)c2cccc(C(F)(F)F)c2)c2cc(-c3cc(F)cc(F)c3Cl)ccc2O1)C(=O)O [Compound 46M, (R)-3-((S)-6-(2-chloro-3,5-difluorophenyl)-4-((3-(trifluoromethyl)phenyl)sulfonyl)-3,4-dihydro-2H-benzo[b][1,4]oxazin-2-yl)-2-methylpropanoic acid]	*** (The symbol “***” indicates a value in the range of greater than 150 to 200)
< 500 nM	C[C@H](C[C@H]1CN(S(=O)(=O)c2cccc(C(F)(F)F)c2)c2cc(-c3cc(F)cc(OC(F)F)c3)ccc2O1)C(=O)O [Compound 46O, (R)-3-((S)-6-(3-(difluoro-methoxy)-5-fluorophenyl)-4-((3-(trifluoromethyl)phenyl)sulfonyl)-3,4-dihydro-2H-benzo[b][1,4]-oxazin-2-yl)-2-methylpropanoic acid]	*** (The symbol “***” indicates a value in the range of greater than 150 to 200)
< 500 nM	CC(C)(C[C@H]1CN(S(=O)(=O)c2cccc(C(F)(F)F)c2)c2cc(-c3cccc(OC(F)F)n3)ccc2O1)C(=O)O [Compound 32AM, (S)-3-(6-(6-(difluoromethoxy)-pyridin-2-yl)-4-((3-(trifluoro-methyl)phenyl)sulfonyl)-3,4-dihydro-2H-benzo[b][1,4]oxazin-2-yl)-2,2-dimethylpropanoic acid]	* (The symbol “*” indicates a value in the range of 25 to 90)
< 500 nM	C[C@H](C[C@H]1CN(S(=O)(=O)c2cccc(C(F)(F)F)c2)c2cc(-c3cccc(C(F)(F)F)n3)ccc2O1)C(=O)O [Compound 46U, (R)-2-methyl-3-((S)-4-((3-(trifluoromethyl)phenyl)sulfonyl)-6-(6-(trifluoromethyl)pyridin-2-yl)-3,4-dihydro-2H-benzo[b][1,4]-oxazin-2-yl)propanoic acid]	*** (The symbol “***” indicates a value in the range of greater than 150 to 200)
